pEC50: −log10 of the molar value.
Assay: Inhibition of NLRP3 inflammasome activation in PMA-treated human THP-1 cells assessed as ASC-SPECK formation preincubated for 1 hr followed by gramicidin addition and measured after 3 hrs by immunofluorescence staining based assay
Assay type: cell-based

## CCN1CC[C@@]2(C)CCN(c3nnc(-c4ccc(C(F)(F)F)cc4O)c(C)n3)[C@@]2(C)C1
  pEC50: 8.30

## Cc1cc(O)c(-c2nnc(N3CC[C@]4(C)CCN(C)C[C@]34C)nc2C)c(F)c1
  pEC50: 8.30

## Cc1nc(N2CC[C@]3(C)CCN(C)C[C@]23C)nnc1-c1ccc(Cl)cc1O
  pEC50: 8.40

## Cc1nc(N2CC[C@]3(C)CCN(C)C[C@]23C)nnc1-c1ccc(C(F)(F)F)cc1O
  pEC50: 8.30

## Cc1nc(N2CC[C@]3(C)CCN(C)C[C@]23C)nnc1-c1ccc(OC(F)(F)F)cc1O
  pEC50: 8.30

## Cc1nc(N2CC[C@]3(C)CCN(C)C[C@]23C)nnc1-c1ccc(C2CC2)cc1O
  pEC50: 8.15
